Reference: ChEMBL document CHEMBL4825763, “Discovery of potent and selective Bcl-2 inhibitors with acyl sulfonamide skeleton” (Bioorg Med Chem, 2021)
The source made the active and inactive calls. No cut-off for these calls is given here.

What was measured:
RS4-11 = test: Antiproliferative activity against human RS4-11 cells assessed as inhibition of cell proliferation measured after 72 hrs by CCK8 assay; type: functional, cell-based; conditions: RS4-11, 72 h
[1] = biological target: Apoptosis regulator Bcl-2 (Homo sapiens, UniProt P10415); test: Displacement of Bak derived peptide from Bcl-2 (unknown origin) measured after 15 mins by microplate reader assay
Sequence of Apoptosis regulator Bcl-2 (P10415 whole entry): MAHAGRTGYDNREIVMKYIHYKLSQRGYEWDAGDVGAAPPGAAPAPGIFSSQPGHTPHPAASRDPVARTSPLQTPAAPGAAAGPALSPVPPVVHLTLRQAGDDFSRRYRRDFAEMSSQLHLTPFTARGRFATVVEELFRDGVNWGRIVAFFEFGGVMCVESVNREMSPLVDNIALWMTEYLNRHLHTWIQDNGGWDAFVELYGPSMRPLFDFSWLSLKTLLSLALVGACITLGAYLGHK

Bcl-2-like protein 1 = Bcl-2-like protein 1 (Homo sapiens, UniProt Q07817); test: Displacement of Bak derived peptide from Bcl-xL (unknown origin) measured after 15 mins by microplate reader assay
Sequence of Bcl-2-like protein 1 (Q07817 whole entry): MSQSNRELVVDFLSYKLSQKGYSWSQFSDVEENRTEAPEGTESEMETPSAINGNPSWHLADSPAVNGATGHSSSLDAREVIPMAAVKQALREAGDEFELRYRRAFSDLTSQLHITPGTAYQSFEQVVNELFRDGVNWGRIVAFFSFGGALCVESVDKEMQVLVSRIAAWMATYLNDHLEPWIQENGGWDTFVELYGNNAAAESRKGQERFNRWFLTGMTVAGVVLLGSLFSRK

[2] = Metabolic stability in rat liver microsomes assessed as parent compound remaining incubated for 60 mins in presence of NADPH; type: ADME, Microsome; conditions: read-out: Stabilty
[3] = Metabolic stability in mouse liver microsomes assessed as parent compound remaining incubated for 60 mins in presence of NADPH; type: ADME, Microsome; conditions: read-out: Stabilty
[4] = Cmax in rat at 5 mg/kg, ig administered as single dose measured upto 24 hrs by LC-MS/MS analysis; type: ADME, organism-based; parameters: route intragastric, dose 5 mg/kg, time <=24; conditions: in vivo, po
[5] = biological target: T1, Caspase-3 (Canis lupus familiaris) (UniProt Q8MKI5); test: Induction of caspase 3 activity in dog platelets assessed as cleavage of Ac-DEVD-Pna at 0.5 to 2.5 uM using Ac-DEVD-pNA as substrate incubated for 90 mins; type: tissue-based; conditions: Platelet, dose 0.5-2.5 µM
T1 sequence (whole entry): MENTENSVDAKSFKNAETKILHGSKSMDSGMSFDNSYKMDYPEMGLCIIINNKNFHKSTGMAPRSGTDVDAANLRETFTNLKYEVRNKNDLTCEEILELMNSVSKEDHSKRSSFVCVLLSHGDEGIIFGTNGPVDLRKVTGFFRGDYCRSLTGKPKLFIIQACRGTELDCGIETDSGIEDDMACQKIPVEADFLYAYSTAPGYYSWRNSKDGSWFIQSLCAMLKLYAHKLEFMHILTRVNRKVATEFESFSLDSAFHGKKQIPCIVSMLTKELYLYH

[6] = Half life in mouse at 10 mg/kg, ig administered as single dose measured upto 24 hrs by LC-MS/MS analysis; type: ADME, organism-based; conditions: in vivo, po
[7] = Tmax in rat at 5 mg/kg, ig administered as single dose measured upto 24 hrs by LC-MS/MS analysis; type: ADME, organism-based; conditions: in vivo, po
[8] = AUC (0 to infinity) in rat at 5 mg/kg, ig administered as single dose measured upto 24 hrs by LC-MS/MS analysis; type: ADME, organism-based; parameters: route intragastric, dose 5 mg/kg, time <=24; conditions: in vivo, po
[9] = Tmax in mouse at 10 mg/kg, ig administered as single dose measured upto 24 hrs by LC-MS/MS analysis; type: ADME, organism-based; conditions: in vivo, po
[10] = Cmax in mouse at 10 mg/kg, ig administered as single dose v measured upto 24 hrs by LC-MS/MS analysis; type: ADME, organism-based; parameters: route intragastric, dose 10 mg/kg, time <=24; conditions: in vivo, po
[11] = AUC (0 to t) in mouse at 10 mg/kg, ig administered as single dose measured upto 24 hrs by LC-MS/MS analysis; type: ADME, organism-based; parameters: route intragastric, dose 10 mg/kg, time <=24; conditions: in vivo, po
[12] = AUC (0 to infinity) in mouse at 10 mg/kg, ig administered as single dose measured upto 24 hrs by LC-MS/MS analysis; type: ADME, organism-based; parameters: route intragastric, dose 10 mg/kg, time <=24; conditions: in vivo, po
[13] = AUC (0 to t) in rat at 5 mg/kg, ig administered as single dose measured upto 24 hrs by LC-MS/MS analysis; type: ADME, organism-based; parameters: route intragastric, dose 5 mg/kg, time <=24; conditions: in vivo, po
[14] = Half life in rat at 5 mg/kg, ig administered as single dose measured upto 24 hrs by LC-MS/MS analysis; type: ADME, organism-based; conditions: in vivo, po
[15] = Metabolic stability in human liver microsomes assessed as parent compound remaining incubated for 60 mins in presence of NADPH; type: ADME, Microsome; conditions: read-out: Stabilty
[16] = Toxicity in C57BL/6 mouse plasma assessed as effect on platelet count at 300 mg/kg, ig for 4 hrs; type: organism-based; conditions: in vivo, po
[17] = MRT (0 to t) in rat at 5 mg/kg, ig administered as single dose measured upto 24 hrs by LC-MS/MS analysis; type: ADME, organism-based; conditions: in vivo, po
[18] = MRT (0 to t) in mouse at 10 mg/kg, ig administered as single dose measured upto 24 hrs by LC-MS/MS analysis; type: ADME, organism-based; conditions: in vivo, po

Row | Structure (SMILES) | IC50 (RS4-11) [nM] | IC50 [1] [nM] | IC50 (Bcl-2-like protein 1) [nM] | also measured
1 | CC1(C)CCC(CN2CCN(c3ccc(C(=O)NS(=O)(=O)c4ccc(OCC5CCOC5)c([N+](=O)[O-])c4)c(Oc4cnc5[nH]ccc5c4)c3)CC2)=C(c2ccc(C(F)(F)F)cc2)C1 (stereo unspecified) | 47 | 4.4 | 1700 | 
2 | CC(C)C(=O)N1CCC(CNc2ccc(S(=O)(=O)NC(=O)c3ccc(N4CCN(CC5=C(c6ccc(C(F)(F)F)cc6)CC(C)(C)CC5)CC4)cc3Oc3cnc4[nH]ccc4c3)cc2[N+](=O)[O-])CC1 | 5.3 | 2.4 | 453 | 
3 | CC1(C)CCC(CN2CCN(c3ccc(C(=O)NS(=O)(=O)c4ccc(NCC5CCOCC5)c([N+](=O)[O-])c4)c(Oc4cnc5[nH]ccc5c4)c3)CC2)=C(c2ccc(Cl)cc2C(F)(F)F)C1 | 74 |  | > 2000 | 
4 | CC(Oc1ccc(S(=O)(=O)NC(=O)c2ccc(N3CCN(CC4=C(c5ccc(C(F)(F)F)cc5)CC(C)(C)CC4)CC3)cc2Oc2cnc3[nH]ccc3c2)cc1[N+](=O)[O-])C1CCOCC1 (stereo unspecified) | 269 | 9.2 | 618 | 
5 | CC1(C)CCC(CN2CCN(c3ccc(C(=O)NS(=O)(=O)c4ccc(NCC5CCOCC5)c([N+](=O)[O-])c4)c(Oc4cnc5[nH]ccc5c4)c3)CC2)=C(c2ccc(Cl)cc2)C1 [VENETOCLAX] | 1.8 |  |  | remaining at 1 h [2]: 46.3%; remaining at 1 h [3]: 58.8%; Cmax [4]: 355 ng/mL; Activity [5]: inactive; half-life [6]: 2.78 h; Tmax [7]: 2.67 h; AUC(0-inf) [8]: 1470 ng·h/mL; Tmax [9]: 1.67 h; Cmax [10]: 1310 ng/mL; AUC(0-t) at 24 h [11]: 7760 ng·h/mL; AUC(0-inf) [12]: 8100 ng·h/mL; AUC(0-t) at 24 h [13]: 1380 ng·h/mL; half-life [14]: 1.9 h; remaining at 1 h [15]: 54.9%; Activity [16]: Toxic; MRT last at 24 h [17]: 3.55 h; MRT last at 24 h [18]: 4.71 h
6 | CC1(C)CCC(CN2CCN(c3ccc(C(=O)NS(=O)(=O)c4ccc(NC5CCOC5)c([N+](=O)[O-])c4)c(Oc4cnc5[nH]ccc5c4)c3)CC2)=C(c2ccc(C(F)(F)F)cc2)C1 (stereo unspecified) | 32 | 1.9 | 837 | 
7 | CC1(C)CCC(CN2CCN(c3ccc(C(=O)NS(=O)(=O)c4ccc(NCC5CCOC5)c([N+](=O)[O-])c4)c(Oc4cnc5[nH]ccc5c4)c3)CC2)=C(c2ccc(C(F)(F)F)cc2)C1 (stereo unspecified) | 24.2 | 4.7 | 897 | 
8 | CC1(C)CCC(CN2CCN(c3ccc(C(=O)NS(=O)(=O)c4ccc(OC5CCOCC5)c([N+](=O)[O-])c4)c(Oc4cnc5[nH]ccc5c4)c3)CC2)=C(c2ccc(C(F)(F)F)cc2)C1 | 375 | 8.4 | > 2000 | 
9 | CC1(C)CCC(CN2CCN(c3ccc(C(=O)NS(=O)(=O)c4ccc(OCC5CCOCC5)c([N+](=O)[O-])c4)c(Oc4cnc5[nH]ccc5c4)c3)CC2)=C(c2ccc(C(F)(F)F)cc2)C1 | 5.9 | 1 | 862 | remaining at 1 h [2]: 74.8%; remaining at 1 h [3]: 76.6%; Cmax [4]: 438 ng/mL; Activity [5]: inactive; half-life [6]: 2.99 h; Tmax [7]: 2.67 h; AUC(0-inf) [8]: 3130 ng·h/mL; Tmax [9]: 4 h; Cmax [10]: 920 ng/mL; AUC(0-t) at 24 h [11]: 6960 ng·h/mL; AUC(0-inf) [12]: 7000 ng·h/mL; AUC(0-t) at 24 h [13]: 2620 ng·h/mL; half-life [14]: 4.5 h; remaining at 1 h [15]: 75.8%; Activity [16]: Non-Toxic; MRT last at 24 h [17]: 5.18 h; MRT last at 24 h [18]: 5.7 h
10 | COc1ccc(C2=C(CN3CCN(c4ccc(C(=O)NS(=O)(=O)c5ccc(NCC6CCOCC6)c([N+](=O)[O-])c5)c(Oc5cnc6[nH]ccc6c5)c4)CC3)CCC(C)(C)C2)cc1 | 12 | 3.8 | 813 | 
11 | CN1CCC(COc2ccc(S(=O)(=O)NC(=O)c3ccc(N4CCN(CC5=C(c6ccc(C(F)(F)F)cc6)CC(C)(C)CC5)CC4)cc3Oc3cnc4[nH]ccc4c3)cc2[N+](=O)[O-])C1 (stereo unspecified) | 10 | 0.75 | 16.8 | 
12 | CC1(C)CCC(CN2CCN(c3ccc(C(=O)NS(=O)(=O)c4ccc(NCC5CCOCC5)c([N+](=O)[O-])c4)c(Oc4cnc5[nH]ccc5c4)c3)CC2)=C(c2cccc(C(F)(F)F)c2)C1 | 63 |  |  | 
13 | CC1(C)CCC(CN2CCN(c3ccc(C(=O)NS(=O)(=O)c4ccc(NCC5CCOCC5)c([N+](=O)[O-])c4)c(Oc4cnc5[nH]ccc5c4)c3)CC2)=C(c2ccccc2C(F)(F)F)C1 | 18 | 1.7 | 200 | 
14 | CC1(C)CCC(CN2CCN(c3ccc(C(=O)NS(=O)(=O)c4ccc(OCC5CCCOC5)c([N+](=O)[O-])c4)c(Oc4cnc5[nH]ccc5c4)c3)CC2)=C(c2ccc(C(F)(F)F)cc2)C1 (stereo unspecified) | 12 | 3 | 761 | 
15 | CN(C)CCCNc1ccc(S(=O)(=O)NC(=O)c2ccc(N3CCN(CC4=C(c5ccc(C(F)(F)F)cc5)CC(C)(C)CC4)CC3)cc2Oc2cnc3[nH]ccc3c2)cc1[N+](=O)[O-] | 3.9 | 0.89 | 29 | 
16 | CN1CCC(CNc2ccc(S(=O)(=O)NC(=O)c3ccc(N4CCN(CC5=C(c6ccc(C(F)(F)F)cc6)CC(C)(C)CC5)CC4)cc3Oc3cnc4[nH]ccc4c3)cc2[N+](=O)[O-])C1 (stereo unspecified) | 8.3 | 2.4 | 35.7 | 
17 | CC1(C)CCC(CN2CCN(c3ccc(C(=O)NS(=O)(=O)c4ccc(NCC5CCOCC5)c([N+](=O)[O-])c4)c(Oc4cnc5[nH]ccc5c4)c3)CC2)=C(c2ccc(C(F)(F)F)cc2)C1 | 6.2 | 1.5 | 788 | 
18 | CC1(C)CCC(CN2CCN(c3ccc(C(=O)NS(=O)(=O)c4ccc(NCC5CCOCC5)c([N+](=O)[O-])c4)c(Oc4cnc5[nH]ccc5c4)c3)CC2)=C(c2ccc(C(F)(F)F)c(Cl)c2)C1 | 81 |  | > 2000 | 
19 | CCN1CCC(COc2ccc(S(=O)(=O)NC(=O)c3ccc(N4CCN(CC5=C(c6ccc(C(F)(F)F)cc6)CC(C)(C)CC5)CC4)cc3Oc3cnc4[nH]ccc4c3)cc2[N+](=O)[O-])CC1 | 4.9 | 0.5 | 34.6 | 
20 | CCN(CC)CCCNc1ccc(S(=O)(=O)NC(=O)c2ccc(N3CCN(CC4=C(c5ccc(C(F)(F)F)cc5)CC(C)(C)CC4)CC3)cc2Oc2cnc3[nH]ccc3c2)cc1[N+](=O)[O-] | 3 | 0.3 | 25 | 
21 | CC1(C)CCC(CN2CCN(c3ccc(C(=O)NS(=O)(=O)c4ccc(OCC5CCSCC5)c([N+](=O)[O-])c4)c(Oc4cnc5[nH]ccc5c4)c3)CC2)=C(c2ccc(C(F)(F)F)cc2)C1 | 15 | 1.65 | 500 | 
